Reference: US6596726B1, “Tricyclic compounds capable of inhibiting tyrosine kinases of the epidermal growth factor receptor family” (Warner Lambert Company, priority 1994, dated 2003)

Assays:
[1] = tested on: erbB-2, 3, 4 autophosphorylation in SK-BR-3 breast tumor cells; test: Inhibition of conditioned media-induced autophosphorylation in SK-BR-3 breast tumor cells; assay type: cell-based, human; conditions: SK-BR-3 cells, read-out: SKBR-3 IC50
Protocol: Cells were grown to 100% confluency in 100 mm Petrie dishes (Corning). After the cells were treated for 5 minutes with either EGF (epidermal growth factor), PDGF, or bFGF (basic fibroblast growth factor) (20 ng/ml) or 1 ml of conditioned media from MDA-MB-231 cells, the media was removed and the monolayer scraped into 1 ml of ice cold lysis buffer (50 mM Hepes, pH 7.5, 150 mM NaCl, 10% glycerol, 1% triton X-100, 1 mM EDTA, 1 mM EGTA, 10 mM sodium pyrophosphate, 30 mM p-nitrophenyl phosphate, 1 mM orthovanadate, 50 mM sodium fluoride, 1 mM phenylmethylsulfonylfluoride, 10 μg/ml of aprotinin, and 10 μg/ml of leupeptin). The lysate was transferred to a microfuge tube (small centrifuge that holds 1-2 ml plastic centrifuge tubes), allowed to sit on ice 15 minutes and centrifuged 5 minutes at 10,000×g. The supernatant was transferred to a clean microfuge tube and 5 μg of antibody was added to designated samples. The tubes were rotated for 2 hours at 4° C. after which 25 μl of protein A sepharose was added and then rotation continued for at least 2 more hours. The protein A separose was washed 5 times with 50 mM Hepes, pH 7.5, 150 mM NaCl, 10% glycerol and 0.02% sodium azide. The precipitates were resuspended with 30 μl of Laemlli buffer (Laemmli, NATURE, […], pp. 680-685, 1970), heated to 100° C. for 5 minutes and centrifuged to obtain the supernatant. Whole cell extracts were made by scraping cells grown in the wells of 6 well plates into 0.2 ml of boiling Laemmli buffer. The extract were transferred to a microfuge tube and heated to 100° C. for 5 minutes. The entire supernatant from the immunoprecipitation or 35 μl of the whole cell extract was loaded onto a polyacrylamide gel (4-20%) and electrophoresis carried out by the method of Laemlli (Laemmli, 1970). Proteins in the gel were electrophoretically transferred to nitrocellulose and the membrane was washed once in 10 mM Tris buffer, pH 7.2, 150 mM NaCl, 0.01% Azide (TNA) and blocked overnight in TNA containing 5% bovine serum albumin and 1% ovalbumin (blocking buffer). The membrane was blotted for 2 hours with the primary antibody (1 μg/ml in blocking buffer) and then washed 2 times sequentially in TNA, TNA containing 0.05% Tween-20 and 0.05% Nonidet P-40 (commercially available detergent) and TNA. The membranes were then incubated for 2 hours in blocking buffer containing 0.1 μCi/ml of [^125I] protein A and then washed again as above. After the blots were dry they were loaded into a film cassette and exposed to X-AR X-ray film for 1-7 days. Protein A is a bacterial protein that specifically bonds certain IgG subtypes and is useful in binding to and isolating antibody-antigen complexes.
Inhibition of EGF-Induced Autophosphorylation in A431 Epidermoid Carcinoma Cells and Conditioned Media-Induced Autophosphorylation in SK-BR-3 Breast Tumor Cells by Compounds of the Current Invention

[2] = tested on: B104-1-1 NIH-3T3 mouse fibroblasts transfected by the neu oncogene; test: Growth inhibition assay (antiproliferative), B104-1-1; assay type: cell-based; conditions: 72 h, B104-1-1 cells, 3 days
Source text: Antiproliferative Properties of Tyrosine Kinase Inhibitors IC50 (nM)
B104-1-1—NIH-3T3 mouse fibroblasts transfected by the neu oncogene: Stern et al., Science, 234, pp. 321-324 (1987);

[3] = tested on: SK-BR-3 human breast carcinoma overexpressing erbB-2 and erbB-3; test: Growth inhibition assay (antiproliferative), SK-BR-3; assay type: cell-based; conditions: 72 h, SK-BR-3 cells, 3 days
Protocol: Cells (2×10^4) were seeded in 24-well plates (1.7×1.6 cm, flat bottom) in two mls of medium with or without various concentrations of drug. Plates were incubated for 3 days at 37° in a humidified atmosphere containing 5% CO2 in air. Cell growth was determined by cell count with a Coulter Model AM electronic cell counter (Coulter Electronics, Inc., Hialeah, Fla.).

Brc1cccc(Nc2ncnc3cc4[nH]cnc4cc23)c1 [Example 6, 4-(3-Bromoanilino)imidazolo[4,5-g]quinazoline]
IC50 [1]: 55 nM
IC50 [2]: 3200 nM
IC50 [3]: 200 nM
